Data: article PMC7686313, “Phase 1 study of mTORC1/2 inhibitor sapanisertib (TAK-228) in advanced solid tumours, with an expansion phase in renal, endometrial or bladder cancer” (British Journal of Cancer, 2020)

Experiment: Safety (adverse events, NCI CTCAE v4.0), expansion phase
Conditions: expansion Total (n = 82)
Excerpt: Based on data collected during dose-escalation, the expansion phase evaluated the safety and efficacy of QD and QW sapanisertib in patients with RCC, endometrial or bladder cancer. Patients could continue receiving sapanisertib for ≤1 year (or beyond, if the investigator and sponsor agreed) in the absence of disease progression or unacceptable toxicity.
Patients who received ≥1 dose of sapanisertib were included in the safety population. The response-evaluable population included patients who received ≥1 dose of sapanisertib, had measurable disease at baseline, and had ≥1 postbaseline assessment. […] Adverse events (AEs) were assessed using the National Cancer Institute Common Terminology Criteria for Adverse Events, v4.0. Patients were provided with a home blood-glucose meter to monitor their fasting predose blood-glucose measurements to assess hyperglycaemia as an on-target AE and PD marker.

CC(C)n1nc(-c2ccc3oc(N)nc3c2)c2c(N)ncnc21 [Sapanisertib]
Abdominal pain, all-grade AE of any cause: 17 (21) n (%) | Abdominal pain, grade ≥3 AE of any cause: 3 (4) n (%) | Acute kidney injury, grade ≥3 AE of any cause: 4 (5) n (%) | Acute kidney injury, treatment-related AE: 6 (7) n (%) | Anaemia, all-grade AE of any cause: 19 (23) n (%) | Anaemia, grade ≥3 AE of any cause: 5 (6) n (%) | Anaemia, treatment-related AE: 12 (15) n (%) | Any AE: 82 (100) n (%) | Any AE resulting in dose modification/interruption: 55 (67) n (%) | Any AE resulting in treatment discontinuation: 12 (15) n (%) | Any SAE: 34 (41) n (%) | Any grade ≥3 AE: 58 (71) n (%) | Any treatment-related AE: 82 (100) n (%) | Any treatment-related SAE: 12 (15) n (%) | Any treatment-related grade ≥3 AE: 38 (46) n (%) | Arthralgia, all-grade AE of any cause: 11 (13) n (%) | Asthenia, grade ≥3 AE of any cause: 3 (4) n (%) | Asthenia, treatment-related AE: 12 (15) n (%) | Asthenia, treatment-related grade ≥3 AE: 2 (2) n (%) | Blood creatinine increased, all-grade AE of any cause: 14 (17) n (%) | Blood creatinine increased, treatment-related AE: 8 (10) n (%) | Constipation, all-grade AE of any cause: 28 (34) n (%) | Constipation, grade ≥3 AE of any cause: 2 (2) n (%) | Cough, all-grade AE of any cause: 22 (27) n (%) | Decreased appetite, all-grade AE of any cause: 41 (50) n (%) | Decreased appetite, treatment-related AE: 37 (45) n (%) | Dehydration, all-grade AE of any cause: 17 (21) n (%) | Dehydration, grade ≥3 AE of any cause: 3 (4) n (%) | Dehydration, treatment-related AE: 9 (11) n (%) | Dehydration, treatment-related grade ≥3 AE: 2 (2) n (%) | Depression, all-grade AE of any cause: 8 (10) n (%) | Diarrhoea, all-grade AE of any cause: 41 (50) n (%) | Diarrhoea, grade ≥3 AE of any cause: 3 (4) n (%) | Diarrhoea, treatment-related AE: 35 (43) n (%) | Diarrhoea, treatment-related grade ≥3 AE: 3 (4) n (%) | Dizziness, all-grade AE of any cause: 12 (15) n (%) | Dry mouth, all-grade AE of any cause: 15 (18) n (%) | Dry mouth, treatment-related AE: 10 (12) n (%) | Dysgeusia, all-grade AE of any cause: 17 (21) n (%) | Dysgeusia, treatment-related AE: 16 (20) n (%) | Dyspepsia, treatment-related AE: 6 (7) n (%) | Dyspnoea, grade ≥3 AE of any cause: 2 (2) n (%) | Fatigue, all-grade AE of any cause: 60 (73) n (%) | Fatigue, grade ≥3 AE of any cause: 11 (13) n (%) | Fatigue, treatment-related AE: 56 (68) n (%) | Fatigue, treatment-related grade ≥3 AE: 10 (12) n (%) | Haematuria, grade ≥3 AE of any cause: 2 (2) n (%) | Headache, all-grade AE of any cause: 12 (15) n (%) | Headache, treatment-related AE: 4 (5) n (%) | Hypercholesterolemia, treatment-related AE: 1 (1) n (%) | Hyperglycaemia, all-grade AE of any cause: 50 (61) n (%) | Hyperglycaemia, grade ≥3 AE of any cause: 13 (16) n (%) | Hyperglycaemia, treatment-related AE: 49 (60) n (%) | Hyperglycaemia, treatment-related grade ≥3 AE: 13 (16) n (%) | Hyperkalaemia, grade ≥3 AE of any cause: 2 (2) n (%) | Hypertension, grade ≥3 AE of any cause: 2 (2) n (%) | Hypokalaemia, grade ≥3 AE of any cause: 2 (2) n (%) | Hyponatremia, grade ≥3 AE of any cause: 3 (4) n (%) | Hypophosphatemia, grade ≥3 AE of any cause: 8 (10) n (%) | Hypophosphatemia, treatment-related AE: 9 (11) n (%) | Hypophosphatemia, treatment-related grade ≥3 AE: 6 (7) n (%) | Lymphopenia, grade ≥3 AE of any cause: 2 (2) n (%) | Lymphopenia, treatment-related grade ≥3 AE: 0 (0) n (%) | Musculoskeletal chest pain, grade ≥3 AE of any cause: 2 (2) n (%) | Nausea, all-grade AE of any cause: 54 (66) n (%) | Nausea, grade ≥3 AE of any cause: 5 (6) n (%) | Nausea, treatment-related AE: 51 (62) n (%) | Nausea, treatment-related grade ≥3 AE: 4 (5) n (%) | Oedema peripheral, all-grade AE of any cause: 15 (18) n (%) | On-study deaths: 3 (4) n (%) | Oropharyngeal pain, all-grade AE of any cause: 13 (16) n (%) | Pain in extremity, grade ≥3 AE of any cause: 3 (4) n (%) | Pneumonia, grade ≥3 AE of any cause: 2 (2) n (%) | Pruritus generalised, all-grade AE of any cause: 19 (23) n (%) | Pruritus generalised, treatment-related AE: 15 (18) n (%) | Pruritus generalised, treatment-related grade ≥3 AE: 1 (1) n (%) | Pruritus, all-grade AE of any cause: 15 (18) n (%) | Pruritus, treatment-related AE: 11 (13) n (%) | Pyrexia, all-grade AE of any cause: 14 (17) n (%) | Rash maculo-papular, all-grade AE of any cause: 24 (29) n (%) | Rash maculo-papular, grade ≥3 AE of any cause: 4 (5) n (%) | Rash maculo-papular, treatment-related AE: 17 (21) n (%) | Rash maculo-papular, treatment-related grade ≥3 AE: 3 (4) n (%) | Rash, treatment-related AE: 2 (2) n (%) | Rash, treatment-related grade ≥3 AE: 0 (0) n (%) | Sepsis, grade ≥3 AE of any cause: 2 (2) n (%) | Stomatitis (includes oropharyngeal pain and mucosal inflammation), treatment-related AE: 37 (45) n (%) | Stomatitis, all-grade AE of any cause: 40 (49) n (%) | Stomatitis, grade ≥3 AE of any cause: 4 (5) n (%) | Stomatitis, treatment-related grade ≥3 AE: 4 (5) n (%) | Thrombocytopenia, grade ≥3 AE of any cause: 4 (5) n (%) | Thrombocytopenia, treatment-related grade ≥3 AE: 4 (5) n (%) | Transitional cell carcinoma, grade ≥3 AE of any cause: 2 (2) n (%) | Urinary tract infection, all-grade AE of any cause: 15 (18) n (%) | Vomiting, all-grade AE of any cause: 43 (52) n (%) | Vomiting, grade ≥3 AE of any cause: 3 (4) n (%) | Vomiting, treatment-related AE: 41 (50) n (%) | Weight decreased, all-grade AE of any cause: 15 (18) n (%) | Weight decreased, treatment-related AE: 9 (11) n (%)
